Here are results for 4 compounds from ChEMBL document CHEMBL2086352, “Thiazoline peptides and a tris-phenethyl urea from Didemnum molle with anti-HIV activity” (J Nat Prod, 2012).

In experiment [1] the target is Human immunodeficiency virus type 1 integrase (Human immunodeficiency virus 1) (UniProt Q7ZJM1). The experiment is described as follows: Inhibition of HIV-1 integrase at 100 ug/ml by colorimetry.
In experiment [2] the test system is Human immunodeficiency virus. As to the kind of experiment: Antiviral activity against HIV infected in 1A2 cells assessed as cytoprotective activity at 78 uM after 96 hrs by MTT assay. It counts as functional, organism-based.
Experiment [3] deals with Human immunodeficiency virus. As to the kind of experiment: Antiviral activity against HIV infected in 1A2 cells assessed as cytoprotective activity after 96 hrs by MTT assay. It is filed as functional, organism-based. Conditions: Human immunodeficiency virus 1, 1A2, 96 h.
The target in experiment [4] is Human immunodeficiency virus type 1 integrase (Human immunodeficiency virus 1, UniProt Q7ZJM1). The experiment is described as follows: Inhibition of HIV-1 integrase by colorimetry.
Chain of Human immunodeficiency virus type 1 integrase (Q7ZJM1 whole entry): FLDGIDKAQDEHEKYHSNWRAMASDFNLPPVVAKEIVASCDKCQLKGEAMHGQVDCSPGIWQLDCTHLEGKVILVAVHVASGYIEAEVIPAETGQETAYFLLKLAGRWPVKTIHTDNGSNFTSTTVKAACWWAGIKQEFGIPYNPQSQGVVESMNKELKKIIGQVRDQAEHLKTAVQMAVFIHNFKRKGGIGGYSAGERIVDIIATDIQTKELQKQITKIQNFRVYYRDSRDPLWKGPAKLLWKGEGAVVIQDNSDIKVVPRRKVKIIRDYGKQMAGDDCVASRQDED

Structures are written as SMILES. Calls of active or inactive are those of the source. No cut-off for these calls is given here. Starred links: 1 amine or outer side, 2 acyl side, 3 side chain; linkers in the order of their positions; H or OH if unused. Non-standard residues stand in square brackets, D forms with d. Residues, ends and D or L forms follow the SMILES beside them. *: point of attachment. X1 = O=C([C@H]1CSC([C@@H](Cc2ccccc2)N[*:1])=N1)[*:2]; Allyl(1,1-Me2) = C=CC(C)(C)*

Chain of Human immunodeficiency virus type 1 integrase (Human immunodeficiency virus 1) (Q7ZJM1 as listed by the source): as the sequence (Q7ZJM1 whole entry) above

With `C=CC(C)(C)O[C@H](C)[C@@H]1NC(=O)[C@H]2CSC(=N2)[C@@H](Cc2ccccc2)NC(=O)[C@@H]2CCCN2C(=O)[C@H](CO)NC(=O)[C@H](CC(C)C)NC1=O` (cyclo(LSP[X1]T(Allyl(1,1-Me2)))), in experiment [1], the inhibition entry was “inactive”. For the same compound, the outcome in experiment [2] was inactive.

In the case of `CC[C@H](C)[C@@H]1NC(=O)[C@H]2CSC(=N2)[C@@H](Cc2ccccc2)NC(=O)[C@@H]2CCCN2C(=O)[C@@H]2CCCN2C(=O)[C@H](C(C)C)NC1=O` [MOLLAMIDE F] (cyclo(IVPP[X1])), the concentration for half-maximal inhibition (IC50) in experiment [3] amounted to 78 µM; in experiment [4], 39 µM. In the case of `O=C(NCCc1ccccc1)NCCc1ccccc1C(=O)NCCc1ccccc1` [MOLLEUREA A], the inhibition result in experiment [1] is “inactive”. The IC50 in experiment [3] amounted to 60 µM. Compound `[N-]=[N+]=[N-]` [SODIUM AZIDE] displayed an IC50 in experiment [4] of 46000 µM.

One may read the IC50 as the concentration needed to halve the response being measured.
